Values quoted from earlier work as cited in patent US20040131704A1, “A method of organic and all natural treatment, prevention and relief of diaper dermatitis and other related skin irritations” (priority 2003, published 2004).

Key:
[1] = topical application of Lavender oil
[2] = relative activity of triterpenoids
[3] = system: 18 strains of gram positive and gram-negative bacteria
epithelial formations = settings: aqueous solution in strengths of 0.30 percent

Q: With `C=CC(C)(CCC=C(C)C)OC(C)=O` (stereo not shown) [linalyl acetate] as the compound, how does the “time of peak in the blood” value [1] read?
A: Its value is 19 min.

Q: What about the “time to detection in the blood” value [1] of the same compound?
A: The value was “five”.

Q: For `C=C(C)[C@@H]1CC[C@]2(C)CC[C@]3(C)[C@H](CC[C@@H]4[C@@]5(C)CC[C@H](O)C(C)(C)[C@@H]5CC[C@]43C)[C@@H]12` [lupeol], which anti-inflammatory activity [2] is on record?
A: The anti-inflammatory activity was “less active than the free diol”.

Q: With faradoil monoester as the compound, how does the anti-inflammatory activity [2] read?
A: The anti-inflammatory activity was “most relevant principle for the activity of the drug”.

Q: Which “number of strains with antibacterial activity” value [3] does the source give for `CC12CCC(CC1)C(C)(C)O2` [cineole] here?
A: The value was 16 out of 18 strains.

Q: With `CC1=CC[C@@]2(C)[C@H]([C@@H]1C)[C@H]1CC[C@@H]3[C@@]4(C)CC[C@H](O)C(C)(C)[C@@H]4CC[C@@]3(C)[C@]1(C)C[C@@H]2O` [faradiol] as the compound, how does the anti-inflammatory activity [2] read?
A: The anti-inflammatory activity was “most active of the tested compounds and equals indomethacian in activity”.

Q: With `CC1=CCC2(C)CCC3(C)C(CCC4C5(C)CCC(O)C(C)(C)C5CCC43C)C2C1C` (stereo not shown) [psi-taraxzsterol] as the compound, how does the anti-inflammatory activity [2] read?
A: The anti-inflammatory activity was “less active than the free diol”.

Q: Which anti-inflammatory activity [2] does the source give for `CC1(C)CC[C@]2(C)CC[C@]3(C)C(=CC[C@@H]4[C@@]5(C)CC[C@H](O)C(C)(C)[C@@H]5CC[C@]43C)[C@@H]2C1` [beta-amyrin] here?
A: Its anti-inflammatory activity is “less active than the free diol”.

Q: With `NC(=O)NC1NC(=O)NC1=O` (stereo not shown) [Allantoin] as the compound, how does the “action in strengthening epithelial formations” value (epithelial formations) read?
A: The value was “powerful action”.

Q: For `C=CC(C)(O)CCC=C(C)C` (stereo not shown) [Linalool], which “number of strains with antibacterial activity” value [3] is on record?
A: Its value is 17 out of 18 strains.

Q: And the “time of peak in the blood” value [1]?
A: The value was 19 min.

Q: And the “time to detection in the blood” value [1]?
A: The value was “five”.

Q: For `C=C1CC[C@]2(C)CC[C@]3(C)[C@H](CC[C@@H]4[C@@]5(C)CC[C@H](O)C(C)(C)[C@@H]5CC[C@]43C)[C@H]2[C@@H]1C` [taraxasterol], which anti-inflammatory activity [2] is on record?
A: Its anti-inflammatory activity is “less active than the free diol”.
